The values that follow come from US11504323B2, “Boundary surface charged contact lens for delivery” (Lynthera Corporation, priority 2020, dated 2022).

In brackets after ≈: the same amount, converted by molar mass. Counter-ions that a name gives are not always drawn. Like-named read-outs stand apart in the source and are kept apart here.

Data set [1] is described as follows: Release of THCL and KTF from oleic acid loaded lenses in PBS at different pH. Particulars: release medium pH from 7.4 to 5.5.
For data set [2] the following is noted: cited from earlier work.
For data set [3] the following is noted: cited from earlier work. The source holds these as a separate data set.

Consider `CN1CCC(=C2c3ccccc3CC(=O)c3sccc32)CC1` [KTF, ketotifen fumarate], for which, in data set [1], the “release kinetics of KTF as pH decreases” value was “accelerated”. Moreover, the “solubility in PBS” value in data set [2] (pH 7) was 10500 µg/mL; in data set [2] (pH 10) it was 20 µg/mL.

Take `CCCCCCCCCCCCCC(=O)O` [Myristic acid]: the Solubility in water in data set [3] is 1 µM (≈ 0.228 µg/mL).
